Results taken from ChEMBL document CHEMBL5352385, “Marine natural products and their synthetic analogs as promising antibiofilm agents for antibiotics discovery and development” (Eur J Med Chem, 2022).
Where a SMILES comes first, the peptide text is derived from it. The star is where a group is joined. Palmitoyl = CCCCCCCCCCCCCCCC(=O)*; X2 = CCCCCCCCC(O)CC(=O)O*

Key:
Assay type in all cases: functional
Streptococcus mutans [1] = assay: Antibiofilm activity against Streptococcus mutans UA159 assessed as inhibition of biofilm formation at 3.0 ug/ml relative to control; parameters: scale not given: the % may be the effect or the level left; settings: dose 3 µg/ml
Streptococcus mutans [2] = assay: Antibiofilm activity against clinical isolates Streptococcus mutans assessed as inhibition of biofilm formation at 3.0 ug/ml relative to control; parameters: scale not given: the % may be the effect or the level left; settings: dose 3 µg/ml
Candida albicans = assay: Antibiofilm activity against Candida albicans BH assessed as inhibition of biofilm formation at 25 ug/ml by microdilution plate method relative to control; parameters: scale not given: the % may be the effect or the level left; settings: dose 25 µg/ml
Bacillus pumilus = assay: Antibiofilm activity against Bacillus pumilus TiO1 assessed as inhibition of biofilm formation at 12.5 ug/ml by microdilution plate method relative to control; parameters: scale not given: the % may be the effect or the level left; settings: dose 12.5 µg/ml
Pseudomonas aeruginosa [3] = assay: Antibiofilm activity against Pseudomonas aeruginosa PA01 assessed as inhibition of biofilm formation at 100 ug/ml by microdilution plate method relative to control; parameters: scale not given: the % may be the effect or the level left; settings: dose 100 µg/ml
Pseudomonas aeruginosa [4] = assay: Antibiofilm activity against Pseudomonas aeruginosa PA01 assessed as inhibition of biofilm formation at 25 ug/ml by microdilution plate method relative to control; parameters: scale not given: the % may be the effect or the level left; settings: dose 25 µg/ml
Bacillus subtilis = assay: Antibiofilm activity against Bacillus subtilis MTCC 619 at 2 ug/ml incubated for 18 hrs by crystal violet staining based analysis relative to control; settings: dose 2 µg/ml
Vibrio cholerae = assay: Antibiofilm activity against Vibrio cholerae MTCC 3906 at 2 ug/ml incubated for 18 hrs by crystal violet staining based analysis relative to control; settings: dose 2 µg/ml
Staphylococcus aureus [5] = assay: Antibiofilm activity against Staphylococcus aureus MTCC 96 at 2 ug/ml incubated for 18 hrs by crystal violet staining based analysis relative to control; settings: dose 2 µg/ml
Pseudomonas aeruginosa [6] = assay: Antibiofilm activity against Pseudomonas aeruginosa FSPA02 at 75 ug/ml by crystal violet staining based confocal microscopy analysis relative to control; settings: dose 75 µg/ml
Pseudomonas aeruginosa [7] = assay: Antibiofilm activity against Pseudomonas aeruginosa PAO1 at 500 ug/ml incubated for 24 hrs by crystal violet staining based analysis relative to control; settings: dose 500 µg/ml
Serratia marcescens = assay: Antibiofilm activity against Serratia marcescens FJ584421 assessed as inhibition of biofilm formation at 300 ug/ml relative to control; parameters: scale not given: the % may be the effect or the level left; settings: dose 300 µg/ml
Pseudomonas aeruginosa [8] = assay: Antibiofilm activity against Pseudomonas aeruginosa at 100 ug/ml relative to control; settings: dose 100 µg/ml
Staphylococcus aureus [9] = assay: Antibiofilm activity against Staphylococcus aureus at 100 ug/ml relative to control; settings: dose 100 µg/ml
Pseudomonas aeruginosa [10] = assay: Antibiofilm activity against Pseudomonas aeruginosa assessed as inhibition of biofilm formation at 90 ug/ml incubated for 24 hrs by crystal violet staining based analysis relative to control; parameters: scale not given: the % may be the effect or the level left; settings: dose 90 µg/ml
Pseudomonas aeruginosa [11] = assay: Antibiofilm activity against Pseudomonas aeruginosa assessed as inhibition of biofilm formation at 100 to 200 ug/ml relative to control; parameters: scale not given: the % may be the effect or the level left; settings: dose 100-200 µg/ml; at 100 to 200 µg/mL
Escherichia coli = assay: Antibiofilm activity against Escherichia coli assessed as inhibition of biofilm formation

Q: `C[C@H](CC[C@H](C)C(C)(C)C)[C@H]1CC[C@H]2C3C[C@H](OS(=O)(=O)[O-])[C@H]4C[C@H](OS(=O)(=O)[O-])[C@@H](OS(=O)(=O)[O-])C[C@]4(C)[C@H]3CC[C@]12C.[Na+].[Na+].[Na+]` (some centres not stated) was tested. Which Activity (Streptococcus mutans [1]) did it give?
A: 99.5%

Q: And the Activity (Streptococcus mutans [2])?
A: 85.2%

Q: Which results are given for `CCCCCCCCCCCCCCCC(=O)OC[C@H]1O[C@H](O)[C@H](O)[C@@H](O)[C@@H]1O`?
A: Activity (Candida albicans): >50%; Activity (Bacillus pumilus): >50%; Activity (Pseudomonas aeruginosa [3]): >70%; Activity (Pseudomonas aeruginosa [4]): >50%

Q: Which Activity (Bacillus subtilis) does the source give for `CCCCCCCCCCCCCCCC(=O)NC(CO)C(=O)NC(CC(=O)O)C(=O)NC(C(=O)NC(CO)C(=O)NC(CO)C(=O)O)C(C)C` (configuration not stated) (Palmitoyl-SDVSS-OH; configuration not given here) here?
A: 99%

Q: What about the Activity (Vibrio cholerae) of the same compound?
A: 99%

Q: What about the Activity (Staphylococcus aureus [5]) of the same compound?
A: 99%

Q: For `CCCCCCCCC(O)CC(=O)OC(=O)C(Cc1ccccc1)NC(=O)C(CC(C)C)NC(=O)C(CC(C)C)NC(=O)C(NC(=O)C(CC(=O)O)NC(=O)C(CC(C)C)NC(=O)C(N)CC(C)C)C(C)C` (configuration not stated) (H-LLDVLLF-X2; configuration not given here), which Activity (Pseudomonas aeruginosa [6]) is on record?
A: 90%

Q: `O=C1N[C@@H](Cc2ccc(O)cc2)C(=O)N2CCC[C@@H]12` was tested. Which Activity (Pseudomonas aeruginosa [7]) did it give?
A: 48%

Q: How did the Activity (Serratia marcescens) turn out when `OCCc1ccc(O)cc1` [TYROSOL] was run?
A: 85.7%

Q: What does the source list for `CCCC/C=C\CCCCCCCCCCCC=O`?
A: Activity (Pseudomonas aeruginosa [8]): 82.657%; Activity (Staphylococcus aureus [9]): 78.973%

Q: For `CC(C)CC(=O)NCCc1ccccc1`, which Activity (Pseudomonas aeruginosa [10]) is on record?
A: >40%

Q: For `CCCCCCCCC1C=CC(=O)O1` (configuration not stated), which Activity (Pseudomonas aeruginosa [11]) is on record?
A: 100%

Q: What about the MBIC (Escherichia coli) of the same compound?
A: 50 µg/mL
